Data as given in US20220119431A1, “SALT OF EGFR INHIBITOR, CRYSTAL FORM, AND PREPARATION METHOD THEREFOR” (priority 2019, published 2022).

Assays:
Format in all cases: physicochemical
[1] = Stability test, long-term conditions 25° C./60% RH (Test Example 3); conditions: 25° C. ± 2° C./60% RH ± 5% RH
Procedure: (§1) Constant temperature and humidity chamber, model: LDS-800Y, condition: 40° C./75% RH and 25° C./60% RH.
(§2) Influencing factor experimental conditions (high temperature of 60° C., high humidity of 75% RH, illumination): an appropriate amount of crystalline form A of the compound of formula (IIA) was placed in a dry and clean open weighing bottle, then the bottle was placed into a dryer under different conditions, and then placed into a corresponding thermostat for observation. The bottle was taken out after being placed for 5 days, 10 days and 30 days, and related substances and contents thereof were measured. Accelerated and long-term experimental conditions (40° C./75% RH, 25° C./60% RH): an appropriate amount of crystalline form A of the compound of formula (IIA) was filled into a double-layer LDPE bags, each layer of LDPE bag was sealed by a binding buckle, then put into an aluminum foil bag for heat sealing, and then put into a corresponding thermostat to observe acceleration and long-term stability.

[2] = Stability test, accelerated conditions 40° C./75% RH (Test Example 3); conditions: 40° C. ± 2° C./75% RH ± 5% RH
Procedure: as §1, §2

[3] = Stability test, influencing factors (illumination, high temperature, high humidity)
Procedure: Illumination test chamber, model: SHH-100GD-2, conditions: 5000±500 lux (visible light) and 90 mw/cm^2 (ultraviolet).
Electric heating blast drying oven, model: GZX-9140MBE condition: 60° C.
Constant temperature and humidity chamber, model: SHH-250SD, condition: 25° C./75% RH.
as §2

[4] = Stability test, accelerated test 40° C./75% RH (Test Example 4); conditions: 40° C. ± 2° C., 75% RH ± 5% RH
Excerpt: The conditions and the method for the raw material stability test are mainly based on related requirements such as “Guidelines for the Stability Test of APIs and Preparations” (General Principles 9001 of the Four Parts of the Chinese Pharmacopoeia, 2015 Edition) and technical guidelines for stability study on chemical drugs (raw materials and preparations) issued by the National Medical Products Administration in February, 2015 (revised), and are specifically shown in Table 14.

[5] = High humidity (25° C./75% RH), Day 5
[6] = High temperature (60° C.), Day 5
[7] = High temperature (60° C.), Day 10
[8] = High temperature (60° C.), Day 30
[9] = Light stability experiment, Day 5
[10] = Light stability experiment, Day 10

SMILES: COc1cc(N2CCC(N3CCN(C)CC3)CC2)c(C)cc1Nc1ncc(Br)c(Nc2ccc3nccnc3c2P(C)(C)=O)n1
- Content ([1]; 0 day): 97.3%
- Total impurities ([1]; 0 day): 1.63%
- Content ([1]; 3 months): 99%
- Total impurities ([1]; 3 months): 1.61%
- Content ([1]; 6 months): 98.2%
- Total impurities ([1]; 6 months): 1.73%
- Content ([1]; 9 months): 99.4%
- Total impurities ([1]; 9 months): 1.83%
- Content ([1]; 12 months): 97.7%
- Total impurities ([1]; 12 months): 1.69%
- Content ([2]; 0 day): 97.3%
- Total impurities ([2]; 0 day): 1.63%
- Content ([2]; 1 month): 99.1%
- Total impurities ([2]; 1 month): 1.71%
- Content ([2]; 2 months): 98.1%
- Total impurities ([2]; 2 months): 1.50%
- Content ([2]; 3 months): 98.6%
- Total impurities ([2]; 3 months): 1.56%
- Content ([2]; 6 months): 97.9%
- Total impurities ([2]; 6 months): 1.61%
- Content [3, 5]: 99.6%
- Total impurities [3, 5]: 1.41%
- Content [3, 6]: 99.1%
- Total impurities [3, 6]: 1.59%
- Content [3, 7]: 101.6%
- Total impurities [3, 7]: 1.63%
- Content [3, 8]: 99.4%
- Total impurities [3, 8]: 1.71%
- Content ([3]; Initial value): 97.3%
- Total impurities ([3]; Initial value): 1.63%
- Content [3, 9]: 97.1%
- Total impurities [3, 9]: 1.99%
- Content [3, 10]: 95.1%
- Total impurities [3, 10]: 2.21%
- Sum of impurities ([4]; month 0): 1.18%
- Water ([4]; month 0): 3.0%
- Sum of impurities ([4]; month 1): 1.10%
- Water ([4]; month 1): 3.0%
- Sum of impurities ([4]; month 2): 1.18%
- Water ([4]; month 2): 3.5%
- Sum of impurities ([4]; month 3): 1.30%
- Water ([4]; month 3): 3.2%
- Sum of impurities ([4]; month 6): 1.18%
- Water ([4]; month 6): 2.8%
